According to the supplement of paper PMC10307832:

How the values were obtained:
Experiment in all cases: relative viability (nuclei count vs DMSO), 5 days (fraction); higher = more cells survive
NCI-H647 = system: NCI-H647
Outline: (§1)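 Dosing by pin tool came one day after lung cancer cell lines were seeded in 1536-well plates, using either one drug or a fixed anchor-drug dose plus five library-drug doses (not always all listed) in √10 steps. After 5 days, nuclei were counted on 4× images. Relative viability is treated-well nuclei count divided by vehicle-well nuclei count, and values are medians of duplicate plates.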

NCI-H2347 = system: NCI-H2347
Outline: as §1

HARA = system: HARA
Outline: as §1

NCI-H2228 = system: NCI-H2228
Outline: as §1

NCI-H322M = system: NCI-H322M
Outline: as §1

NCI-H358 = system: NCI-H358
Outline: as §1

UMC-11 = system: UMC-11
Outline: as §1

NCI-H838 = system: NCI-H838
Outline: as §1

NCI-H1355 = system: NCI-H1355
Outline: as §1

SK-MES-1 = system: SK-MES-1
Outline: as §1

HOP-62 = system: HOP-62
Outline: as §1

NCI-H2170 = system: NCI-H2170
Outline: as §1

NCI-H1993 = system: NCI-H1993
Outline: as §1

EKVX = system: EKVX
Outline: as §1

NCI-H1755 = system: NCI-H1755
Outline: as §1

NCI-H1395 = system: NCI-H1395
Outline: as §1

NCI-H2342 = system: NCI-H2342
Outline: as §1

NCI-H1793 = system: NCI-H1793
Outline: as §1

PC-14 = system: PC-14
Outline: as §1

COR-L23 = system: COR-L23
Outline: as §1

NCI-H1734 = system: NCI-H1734
Outline: as §1

NCI-H522 = system: NCI-H522
Outline: as §1

NCI-H2009 = system: NCI-H2009
Outline: as §1

COR-L 105 = system: COR-L 105
Outline: as §1

Question: `C[C@@H]1CN(CC(=O)Nc2ccc3c(c2)Cc2cccc(-c4cc(=O)cc(N5CCOCC5)o4)c2S3)C[C@H](C)O1` + CC(=O)Nc1cccc(-n2c(=O)n(C3CC3)c(=O)c3c(Nc4ccc(I)cc4F)n(C)c(=O)c(C)c32)c1 [Trametinib] (partner 0.02 µM) was tested. Which relative viability (NCI-H647; first compound 0.04 µM) did it give?
Answer: Its relative viability is 0.565.

Question: What about the relative viability (NCI-H647; first compound 0.1265 µM) of the same compound?
Answer: Its relative viability is 0.415.

Question: What about the relative viability (NCI-H647; first compound 0.4 µM) of the same compound?
Answer: The relative viability was 0.414.

Question: What about the relative viability (NCI-H647; first compound 4 µM) of the same compound?
Answer: The relative viability was 0.251.

Question: What about the relative viability (NCI-H2347; first compound 0.04 µM) of the same compound?
Answer: Its relative viability is 0.273.

Question: And the relative viability (NCI-H2347; first compound 0.1265 µM)?
Answer: The relative viability was 0.331.

Question: And the relative viability (NCI-H2347; first compound 0.4 µM)?
Answer: Its relative viability is 0.319.

Question: What about the relative viability (NCI-H2347; first compound 4 µM) of the same compound?
Answer: Its relative viability is 0.238.

Question: What about the relative viability (HARA; first compound 0.04 µM) of the same compound?
Answer: The relative viability was 0.785.

Question: And the relative viability (HARA; first compound 0.1265 µM)?
Answer: The relative viability was 0.654.

Question: What about the relative viability (HARA; first compound 0.4 µM) of the same compound?
Answer: The relative viability was 0.602.

Question: And the relative viability (HARA; first compound 4 µM)?
Answer: Its relative viability is 0.406.

Question: What about the relative viability (NCI-H2228; first compound 0.04 µM) of the same compound?
Answer: Its relative viability is 0.575.

Question: And the relative viability (NCI-H2228; first compound 0.1265 µM)?
Answer: Its relative viability is 0.547.

Question: And the relative viability (NCI-H2228; first compound 0.4 µM)?
Answer: The relative viability was 0.536.

Question: And the relative viability (NCI-H2228; first compound 4 µM)?
Answer: Its relative viability is 0.421.

Question: What about the relative viability (NCI-H322M; first compound 0.04 µM) of the same compound?
Answer: The relative viability was 0.402.

Question: What about the relative viability (NCI-H322M; first compound 0.1265 µM) of the same compound?
Answer: Its relative viability is 0.535.

Question: What about the relative viability (NCI-H322M; first compound 0.4 µM) of the same compound?
Answer: Its relative viability is 0.502.

Question: What about the relative viability (NCI-H322M; first compound 4 µM) of the same compound?
Answer: Its relative viability is 0.501.

Question: And the relative viability (NCI-H358; first compound 0.04 µM)?
Answer: The relative viability was 0.131.

Question: What about the relative viability (NCI-H358; first compound 0.1265 µM) of the same compound?
Answer: The relative viability was 0.121.

Question: What about the relative viability (NCI-H358; first compound 0.4 µM) of the same compound?
Answer: Its relative viability is 0.12.

Question: What about the relative viability (NCI-H358; first compound 4 µM) of the same compound?
Answer: The relative viability was 0.112.

Question: What about the relative viability (UMC-11; first compound 0.04 µM) of the same compound?
Answer: Its relative viability is 0.732.

Question: What about the relative viability (UMC-11; first compound 0.1265 µM) of the same compound?
Answer: The relative viability was 0.757.

Question: What about the relative viability (UMC-11; first compound 0.4 µM) of the same compound?
Answer: The relative viability was 0.868.

Question: And the relative viability (UMC-11; first compound 4 µM)?
Answer: Its relative viability is 0.65.

Question: And the relative viability (NCI-H838; first compound 0.04 µM)?
Answer: The relative viability was 0.688.

Question: And the relative viability (NCI-H838; first compound 0.1265 µM)?
Answer: The relative viability was 0.488.

Question: And the relative viability (NCI-H838; first compound 0.4 µM)?
Answer: Its relative viability is 0.521.

Question: And the relative viability (NCI-H838; first compound 4 µM)?
Answer: The relative viability was 0.39.

Question: And the relative viability (NCI-H1355; first compound 0.04 µM)?
Answer: Its relative viability is 0.452.

Question: And the relative viability (NCI-H1355; first compound 0.1265 µM)?
Answer: The relative viability was 0.405.

Question: And the relative viability (NCI-H1355; first compound 0.4 µM)?
Answer: The relative viability was 0.383.

Question: And the relative viability (NCI-H1355; first compound 4 µM)?
Answer: Its relative viability is 0.401.

Question: What about the relative viability (SK-MES-1; first compound 0.04 µM) of the same compound?
Answer: The relative viability was 0.652.

Question: And the relative viability (SK-MES-1; first compound 0.1265 µM)?
Answer: Its relative viability is 0.53.

Question: And the relative viability (SK-MES-1; first compound 0.4 µM)?
Answer: Its relative viability is 0.463.

Question: What about the relative viability (SK-MES-1; first compound 4 µM) of the same compound?
Answer: The relative viability was 0.405.

Question: And the relative viability (HOP-62; first compound 0.04 µM)?
Answer: The relative viability was 0.4.

Question: What about the relative viability (HOP-62; first compound 0.1265 µM) of the same compound?
Answer: The relative viability was 0.374.

Question: And the relative viability (HOP-62; first compound 0.4 µM)?
Answer: Its relative viability is 0.297.

Question: What about the relative viability (HOP-62; first compound 4 µM) of the same compound?
Answer: The relative viability was 0.313.

Question: What about the relative viability (NCI-H2170; first compound 0.04 µM) of the same compound?
Answer: The relative viability was 1.04.

Question: And the relative viability (NCI-H2170; first compound 0.1265 µM)?
Answer: Its relative viability is 0.931.

Question: What about the relative viability (NCI-H2170; first compound 0.4 µM) of the same compound?
Answer: Its relative viability is 0.877.

Question: What about the relative viability (NCI-H2170; first compound 4 µM) of the same compound?
Answer: The relative viability was 0.847.

Question: What about the relative viability (NCI-H1993; first compound 0.04 µM) of the same compound?
Answer: The relative viability was 0.521.

Question: And the relative viability (NCI-H1993; first compound 0.1265 µM)?
Answer: Its relative viability is 0.565.

Question: And the relative viability (NCI-H1993; first compound 0.4 µM)?
Answer: The relative viability was 0.521.

Question: What about the relative viability (NCI-H1993; first compound 4 µM) of the same compound?
Answer: Its relative viability is 0.478.

Question: And the relative viability (EKVX; first compound 0.04 µM)?
Answer: The relative viability was 0.364.

Question: And the relative viability (EKVX; first compound 0.1265 µM)?
Answer: Its relative viability is 0.369.

Question: What about the relative viability (EKVX; first compound 0.4 µM) of the same compound?
Answer: Its relative viability is 0.349.

Question: What about the relative viability (EKVX; first compound 4 µM) of the same compound?
Answer: Its relative viability is 0.294.

Question: What about the relative viability (NCI-H1755; first compound 0.04 µM) of the same compound?
Answer: The relative viability was 0.779.

Question: What about the relative viability (NCI-H1755; first compound 0.1265 µM) of the same compound?
Answer: The relative viability was 0.737.

Question: What about the relative viability (NCI-H1755; first compound 0.4 µM) of the same compound?
Answer: The relative viability was 0.716.

Question: And the relative viability (NCI-H1755; first compound 4 µM)?
Answer: Its relative viability is 0.663.

Question: And the relative viability (NCI-H1395; first compound 0.1265 µM)?
Answer: The relative viability was 1.11.

Question: And the relative viability (NCI-H1395; first compound 0.4 µM)?
Answer: Its relative viability is 0.824.

Question: What about the relative viability (NCI-H1395; first compound 4 µM) of the same compound?
Answer: Its relative viability is 0.97.

Question: What about the relative viability (NCI-H2342; first compound 0.04 µM) of the same compound?
Answer: The relative viability was 0.806.

Question: What about the relative viability (NCI-H2342; first compound 0.1265 µM) of the same compound?
Answer: Its relative viability is 0.743.

Question: And the relative viability (NCI-H2342; first compound 0.4 µM)?
Answer: The relative viability was 0.818.

Question: What about the relative viability (NCI-H2342; first compound 4 µM) of the same compound?
Answer: The relative viability was 0.721.

Question: What about the relative viability (NCI-H1793; first compound 0.04 µM) of the same compound?
Answer: Its relative viability is 0.349.

Question: And the relative viability (NCI-H1793; first compound 0.1265 µM)?
Answer: Its relative viability is 0.415.

Question: And the relative viability (NCI-H1793; first compound 0.4 µM)?
Answer: Its relative viability is 0.381.

Question: And the relative viability (NCI-H1793; first compound 4 µM)?
Answer: The relative viability was 0.34.

Question: What about the relative viability (PC-14; first compound 0.04 µM) of the same compound?
Answer: Its relative viability is 0.872.

Question: What about the relative viability (PC-14; first compound 0.1265 µM) of the same compound?
Answer: The relative viability was 0.694.

Question: What about the relative viability (PC-14; first compound 0.4 µM) of the same compound?
Answer: The relative viability was 0.719.

Question: And the relative viability (PC-14; first compound 4 µM)?
Answer: Its relative viability is 0.467.

Question: And the relative viability (COR-L23; first compound 0.04 µM)?
Answer: Its relative viability is 0.596.

Question: What about the relative viability (COR-L23; first compound 0.1265 µM) of the same compound?
Answer: Its relative viability is 0.611.

Question: What about the relative viability (COR-L23; first compound 0.4 µM) of the same compound?
Answer: Its relative viability is 0.624.

Question: What about the relative viability (COR-L23; first compound 4 µM) of the same compound?
Answer: The relative viability was 0.447.

Question: And the relative viability (NCI-H1734; first compound 0.04 µM)?
Answer: The relative viability was 0.698.

Question: What about the relative viability (NCI-H1734; first compound 0.1265 µM) of the same compound?
Answer: Its relative viability is 0.756.

Question: And the relative viability (NCI-H1734; first compound 0.4 µM)?
Answer: The relative viability was 0.632.

Question: And the relative viability (NCI-H1734; first compound 4 µM)?
Answer: The relative viability was 0.788.

Question: And the relative viability (NCI-H522; first compound 0.04 µM)?
Answer: Its relative viability is 0.737.

Question: What about the relative viability (NCI-H522; first compound 0.1265 µM) of the same compound?
Answer: Its relative viability is 0.749.

Question: What about the relative viability (NCI-H522; first compound 0.4 µM) of the same compound?
Answer: Its relative viability is 0.724.

Question: And the relative viability (NCI-H522; first compound 4 µM)?
Answer: The relative viability was 0.816.

Question: What about the relative viability (NCI-H2009; first compound 0.04 µM) of the same compound?
Answer: The relative viability was 0.259.

Question: And the relative viability (NCI-H2009; first compound 0.1265 µM)?
Answer: The relative viability was 0.261.

Question: And the relative viability (NCI-H2009; first compound 0.4 µM)?
Answer: Its relative viability is 0.22.

Question: What about the relative viability (NCI-H2009; first compound 4 µM) of the same compound?
Answer: The relative viability was 0.197.

Question: And the relative viability (COR-L 105; first compound 0.04 µM)?
Answer: Its relative viability is 0.458.

Question: What about the relative viability (COR-L 105; first compound 0.1265 µM) of the same compound?
Answer: Its relative viability is 0.412.

Question: And the relative viability (COR-L 105; first compound 0.4 µM)?
Answer: The relative viability was 0.416.

Question: What about the relative viability (COR-L 105; first compound 4 µM) of the same compound?
Answer: The relative viability was 0.428.
